This is an account of results in US5011840A, “Imidazolidinedione derivatives in diabetes treatment” (Pfizer Inc., priority 1989, dated 1991).

One test has as its target T1, aldose reductase (Homo sapiens, UniProt P15121).
T1 construct: partially purified aldose reductase enzyme obtained from human placenta; from tissue; host or cells: human placenta
As to the kind of experiment: Inhibition of aldose reductase enzyme activity (procedure of Hayman et al. as modified by Sestanj et al.). Type of test: biochemical. The settings on record: for inhibition at 10 µM: 10^-5 M; for inhibition at 1 µM: 10^-6 M; for inhibition at 0.1 µM: 10^-7 M; for aldose reductase inhibition (in words): qualitative statement. The method, then: (§1) The activity of the compounds of the present invention, as agents for the control of chronic diabetic complications, is determined by their ability to successfully pass one or more of the following standard biological or pharmacological tests, viz., (1) measuring their ability to inhibit the enzyme activity of isolated aldose reductase; (2) measuring their ability to reduce or inhibit sorbitol accumulation in the sciatic nerve and lens of acutely streptozotocinized (i.e., diabetic) rats; (3) measuring their ability to reverse already-elevated sorbitol levels in the sciatic nerve and lens of chronic streptozotocin-induced diabetic rats; (4) measuring their ability to prevent or inhibit galactitol formation in the lens of acutely galactosemic rats, and (5) measuring their ability to delay cataract formation and reduce the severity of lens opacities in chronic galactosemic rats.
The following 5-substituted imidzolidinedione derivatives of Examples 1 and 4, respectively, were tested for their ability to reduce or inhibit aldose reductase enzyme activity via the procedure of S. Hayman et al., as described in the Journal of Biological Chemistry, Vol. 240, p. 877 (1965) and as modified by K. Sestanj et al. in U.S. Pat. No. 3,821,383. In each case, the substrate employed was partially purified aldose reductase enzyme obtained from human placenta.

For test [1], the system named is sorbitol levels in nerve and lens of diabetic subjects. Kind of test: Lowering of sorbitol levels in sciatic/peripheral nerve and lens of diabetic subjects (general statement). Type of test: in vivo. The settings on record: qualitative statement. The protocol: as §1
Test [2] concerns sorbitol accumulation in the lens. As to the kind of experiment: Inhibition of sorbitol accumulation in the lens of streptozotocinized (diabetic) rats. Type of test: in vivo, rat.
From the text: (§2) As previously indicated, the 5-substituted imidazolidinedione compounds of this inventon are readily adapted to therapeutic use as aldose reductase inhibitors for the control of certain chronic diabetic complications, in view of their ability to reduce lens and peripheral nerve sorbitol levels in diabetic subjects to a statistically significant degree. […] Furthermore, the herein described compounds of this invention can be administered by either the oral, topical or parenteral routes of administration. […]
as §1, with “rats. […]” for “rats.”

The subject of test [3] is sorbitol accumulation in the sciatic nerve. Kind of test: Inhibition of sorbitol accumulation in the sciatic nerve of streptozotocinized (diabetic) rats. Type of test: in vivo, rat.
From the text: as §2
as §1, with “rats. […]” for “rats.”

Where [4] appears, read: partially purified enzyme from human placenta, read-out: Percent Inhibition of aldose reductase activity.
Where [5] appears, read: 25 mg./kg. orally at 4, 8 and 24 hours after streptozotocin, measured at 27 hours, vs untreated control.
The mark [6] stands for this setting: diabetic rats, oral, 25 mg./kg.

One may read the inhibition as the percentage by which the read-out fell short of the control. Consider `O=C1NC(=O)C(N2C(=O)c3cccc4cccc(c34)C2=O)N1` (stereo not shown) [Example 1, 5-naphthalimido-imidazolidine-2,4-dione], for which the inhibition at 100 µM at aldose reductase (10^-4 M, partially purified enzyme from human placenta, read-out: Percent Inhibition of aldose reductase activity) amounted to 100%. At aldose reductase (setting [4]), the inhibition at 10 µM turned out to be 59%, the inhibition at 1 µM was 17% and the inhibition at 0.1 µM was 6%. Further, the “aldose reductase inhibition (in words)” value at aldose reductase is listed as “potent aldose reductase inhibitors”. Further, in test [1], the “lowering sorbitol levels in the sciatic nerve and lens of diabetic subjects (in words)” value is given as “effective in lowering sorbitol levels”.

On to `O=C1NC(=O)C(c2nn(Cc3ccc(Br)cc3F)c(=O)c3ccccc23)N1` (stereo not shown) [Example 4, 5-[3-(4'-bromo-2'-fluorobenzyl)-3,4-dihydro-4-oxophthalazin-1-yl]-imidazolidine-2,4-dione], for which, in test [2] (setting [5]), the “reduction in the accumulated sorbitol levels in the lens” value is recorded as 36%. The “inhibition of the formation of sorbitol levels in the lens (in words)” value in test [2] (setting [6]) is “to a significantly high degree”. At aldose reductase (setting [4]), the inhibition at 10 µM came to 91%, the inhibition at 1 µM came out at 86% and the inhibition at 0.1 µM is 72%. Besides, on aldose reductase (10^-8 M, partially purified enzyme from human placenta, read-out: Percent Inhibition of aldose reductase activity), the inhibition at 0.01 µM amounted to 20%. Also, the “aldose reductase inhibition (in words)” value on aldose reductase was “potent aldose reductase inhibitors”. The “lowering sorbitol levels in the sciatic nerve and lens of diabetic subjects (in words)” value in test [1] was “effective in lowering sorbitol levels”. Further, the “reduction in the accumulated sorbitol levels in the sciatic nerve” value in test [3] (setting [5]) worked out at 61%. Moreover, in test [3] (setting [6]), the “inhibition of the formation of sorbitol levels in the sciatic nerve (in words)” value is recorded as “to a significantly high degree”.
